The text below walks through data of PubChem BioAssay AID179 (DTP/NCI, 2004).

What is called EC50 is the concentration needed to bring the measured effect to its halfway point. In general, IC50 refers to the midpoint of a concentration-inhibition curve.

Where “and” joins values, the source holds several entries; their conditions need not be identical. Identical values can stand only once. Calls of active or inactive are those of the source.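 The calls were made as follows: active = compounds giving half or more protection of infected cells from virus-caused growth loss, again on retest; inactive = the rest.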 Where only a bound is given, the exact number is not on record here.

The test system of this test is CEM cells HIV-1 protection, formazan growth assay. Briefly: NCI AIDS Antiviral Assay. Conditions: for IC50: measured here: growth of uninfected CEM cells. In outline: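 Category rules: moderately active means at least 50% protection on retest, and confirmed active means 100% protection reproducibly. The underlying data came from a formazan growth assay in HIV-1-infected CEM cells.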

As for `COc1nnc(C)c2[nH]c(=S)[nH]c12`, the EC50 is > 457 µM and the IC50 is > 457 µM.

As for `Cc1cc(CO)c(O)c(CN(CC(=O)O)CC(=O)O)c1`, the EC50 is > 200 µM and the IC50 turned out to be 141 µM.

With `CN(C)C(=S)SSC(=S)SSC(=S)N(C)C`, the EC50 was > 2 µM and the 50% inhibitory concentration (IC50) was determined as 0.646 µM.

Take `CC(=O)Nc1ccc(NC(=O)CC(=O)Nc2ccc(NC(C)=O)cc2)cc1`: the EC50 is > 200 µM and the IC50 was > 200 µM.

For `COC1C=C(NCC2(CO)CCC2)NC(N)=N1` (configuration not stated), the EC50 is > 200 µM and the IC50 is > 200 µM.

On to `CCC1(C)C=Cc2c(cc(O)c3c(=O)c4ccccc4n(C)c23)O1` (configuration not stated), for which the EC50 is > 200 µM and the half-maximal inhibitory concentration (IC50) was > 200 µM.

For the molecule `O=[N+]([O-])c1ccc(/C(=C\c2ccccc2)Cn2ccnc2)cc1`, the EC50 is > 200 µM and the 50% inhibitory concentration (IC50) is 31.6 µM.

In the case of `Oc1ccc(C(=C(Br)c2ccccc2)c2ccc(O)cc2)cc1`, the EC50 was > 200 µM and the IC50 came to 3.98 µM.

As for `CC(=O)NC(NNC(NC(C)=O)(c1ccccc1)c1ccccc1)(c1ccccc1)c1ccccc1`, the EC50 is > 200 µM and the IC50 is > 200 µM.

As for `C(=N\Nc1ccc2ccccc2n1)/c1ccccn1.CC(=O)[O-].CC(=O)[O-].[Zn+2]`, the EC50 is > 200 µM and the IC50 came to 1.05 µM.

As to `CC(=O)[CH-]C(=O)c1ccccc1.CC(=O)[CH-]C(=O)c1ccccc1.CC(=O)[CH-]C(=O)c1ccccc1.[Tl+3]`, the EC50 was > 138 µM and the half-inhibitory concentration (IC50) turned out to be 49 µM.

Regarding `CC1=C2c3ccccc3N(C(=O)/C=C/C(=O)O)[C@H]2[C@H]2C(=O)OC(=O)[C@H]2C1`, the EC50 is > 200 µM and the IC50 was determined as 151 µM.

Turning to `CS(=O)(=O)c1c(N)c2nc(Cl)cn2c2nc3ccccc3nc12`, the EC50 is > 5.75 µM and the concentration for half-maximal inhibition (IC50) was > 5.75 µM.

On to `CN1N(c2ccccc2)C(=O)C2=NC=C(C(=O)c3ccc(Cl)cc3)C(=N)C21C` (configuration not stated), for which the EC50 was > 200 µM and the IC50 is > 200 µM.

Consider `Cc1c2ccccc2nc(CSc2ccccc2)[n+]1[O-]`, for which the EC50 is 9.55 µM and the IC50 is 178 µM.

As for `CN1C(=O)CC2(C)c3cc(C=O)ccc3N(C)C12` (configuration not stated), the result was inactive.

As for `COc1ccc(OC)c2c1C=C[C@H](C1(C)SCCS1)C2C(C)=O` (some centres not stated), the EC50 was > 200 µM and the half-maximal inhibitory concentration (IC50) was 8.91 µM.

As for `CC(C)(C)SSC(=S)C(c1ccccc1)c1ccccc1`, the EC50 is > 200 µM and the half-inhibitory concentration (IC50) is 182 µM.

In the case of `N#CC(C#N)=Cc1ccc(C=C(C#N)C#N)cc1`, the EC50 was > 200 µM and the IC50 is 8.51 µM.

For the molecule `NC(=S)C(=S)N=Cc1c(N)[nH]n(-c2ccccc2)c1=O`, the EC50 was > 120 µM and the IC50 was determined as 70.8 µM.

Consider `COc1ccc2cc3[n+](cc2c1OC)CCc1cc2c(cc1-3)OCO2`, for which the EC50 was > 339 µM; the half-inhibitory concentration (IC50) is 6.76 µM and 3.31 µM.

On to `S=C(SSC(=S)C1CCCC1=NC1CCCCC1)C1CCCC1=NC1CCCCC1` (configuration not stated), for which the EC50 was > 200 µM and the half-maximal inhibitory concentration (IC50) was 151 µM.

For the molecule `CC(C)(C)OC(=O)NCC(=O)NC1CC=CCC1NC(=O)CNC(=O)OC(C)(C)C` (configuration not stated), the EC50 was > 200 µM and the 50% inhibitory concentration (IC50) is > 200 µM.

Turning to `Cc1ccc(C2SC(N)=Nc3c2c(C)nn3C(=O)c2ccccc2O)cc1` (configuration not stated), the EC50 was > 20 µM and the 50% inhibitory concentration (IC50) is 0.603 µM.

`O=c1oc2ccccc2c2nc3cc(Cl)ccc3cc12`: the EC50 was > 50.1 µM and the IC50 was > 50.1 µM.

With `C=C1[C@H](O)[C@@]2(C(=O)N1OC)/C(=C/CC)C=CC(=O)C2O` (some centres not stated), the EC50 was > 891 µM and the concentration for half-maximal inhibition (IC50) amounted to 331 µM.

Turning to `O=c1n(-c2ccccc2)c(=O)n2n1C1C3C4CCC1C4(Cl)C32` (configuration not stated), the EC50 was > 40.7 µM and the IC50 was > 40.7 µM.

Consider `COC(=O)[C@]12CSCN1C(=O)C(C(C)=O)=NN2C(=O)[C@](OC)(c1ccccc1)C(F)(F)F`, for which the EC50 was > 200 µM and the IC50 was > 200 µM.

For the molecule `COC(=O)[C@H]1N[C@@H](C(=O)OC)C23CCC[C@H]2CC[C@]1(C(OC)OC)C3`, the EC50 is > 708 µM and the IC50 was found to be 389 µM.

On to `NC(CSS(=O)(=O)O)=NCCc1ccccn1`, for which the EC50 is > 200 µM and the IC50 is > 200 µM.

As for `O=c1ssc2ccccc12`, the EC50 was > 200 µM and the IC50 came out at 120 µM.

Turning to `O=c1[nH]cnc2c1sc1nc3ccccc3n12`, the EC50 is > 200 µM and the 50% inhibitory concentration (IC50) turned out to be 141 µM.

Regarding `C[C@H]1OCN(C(=O)c2cc3ccccc3cc2SSc2cc3ccccc3cc2C(=O)N2CO[C@H](C)[C@H]2C(=O)O)[C@@H]1C(=O)O`, the EC50 is > 100 µM and the IC50 is > 100 µM.

`COC1/C=C/OC2(C)Oc3c(C)c(O)c4c(O)c(c(C=NN5CCCCCCCC5)c(O)c4c3C2=O)NC(=O)/C(C)=C/C=C/C(C)C(O)C(C)C(O)C(C)C(OC(C)=O)C1C` (configuration not stated): the outcome was inactive.

As for `O=S(/C=C/C=C/S(=O)(=O)c1ccccc1)c1ccccc1` (configuration not stated), the EC50 is > 200 µM and the concentration for half-maximal inhibition (IC50) was determined as 0.977 µM.

For the molecule `CC(=O)N1CCN(C=S)CC1`, the EC50 is > 1450 µM and the concentration for half-maximal inhibition (IC50) is > 1450 µM.

As for `O=C1C[C@@H]2[C@@H](C=CC23CC3)N1O`, the EC50 was > 1510 µM and the 50% inhibitory concentration (IC50) is > 1510 µM.

`COC(=O)c1ccc(Cc2cc(Cc3ccc(C(=O)OC)cc3)cc(Cc3ccc(C(=O)OC)cc3)c2)cc1`: the EC50 is > 25.1 µM and the 50% inhibitory concentration (IC50) is > 25.1 µM.

Regarding `CNc1nnc(CCCCCCCCc2nnc(NC)o2)o1`, the EC50 is > 200 µM and the IC50 is 11.5 µM.

Consider `CN(C)c1ccc(-c2c(C#N)c(N)[nH]c(=S)c2C#N)cc1`, for which the EC50 is > 126 µM and the 50% inhibitory concentration (IC50) was found to be 50.1 µM.

On to `CC(=O)OCC1OC(N2C(=S)N[C@H]([C@@H](O)[C@H](O)[C@H](O)CO)[C@H]2O)C(OC(C)=O)C(OC(C)=O)C1OC(C)=O` (some centres not stated), for which the EC50 was > 200 µM and the 50% inhibitory concentration (IC50) is > 200 µM.

Consider `Cc1cc(C)c2c(c1)CC1(Cc3c(C)ccc(C)c3C1=O)C2=O` (configuration not stated), for which the EC50 is > 100 µM and the half-inhibitory concentration (IC50) is > 100 µM.

As for `CNc1ccc(N=O)cc1`, the EC50 was > 200 µM and the IC50 worked out at 1.07 µM.

Regarding `N#CCCN(CCCN(C(=O)Nc1ccc(NC(=O)N(CCCN(CCC#N)C(N)=O)c2ccccc2)cc1)c1ccccc1)C(N)=O`, the EC50 is > 200 µM and the IC50 is > 200 µM.

Turning to `CCC(=O)NC(Nc1ccc(O)cc1)(C(F)(F)F)C(F)(F)F`, the EC50 is > 200 µM and the IC50 was determined as 46.8 µM.

For `CCOC(=O)C(N=Nc1ccc(S(N)(=O)=O)cc1)C(C)=O` (configuration not stated), the EC50 was > 794 µM and the half-maximal inhibitory concentration (IC50) worked out at 389 µM.

On to `Nc1ccc(C(=O)Oc2ccccc2)c(O)c1`, for which the EC50 is > 200 µM and the IC50 is > 200 µM.

On to `CC(=O)OC1C=C(C=O)C(O)(C=O)C2(C)CCCC(C)(C)C12` (configuration not stated), for which the EC50 was > 200 µM and the IC50 came to 8.13 µM.

As to `COC1(OC)CCN(Cc2ccccc2)C1=O`, the EC50 was > 20 µM and the 50% inhibitory concentration (IC50) worked out at 2.69 µM.

`NC(=S)Nc1cc(Cl)ccc1Cl`: the EC50 is > 32.4 µM and the 50% inhibitory concentration (IC50) was > 32.4 µM.

As for `CCN(CC)CCCCC1CCN(CC(=O)N2c3ccccc3NC(=O)c3ccccc32)CC1`, the EC50 was > 282 µM and the IC50 turned out to be 158 µM.

In the case of `Cc1ccc(C2SC(N)=Nc3c2c(C)nn3C(=O)c2ccc(Cl)cc2)cc1` (configuration not stated), the outcome was inactive.

Regarding `CO[C@H]1C[C@H](n2cc(C)c(=O)[nH]c2=O)O[C@@H]1CO`, the EC50 is > 200 µM and the IC50 was > 200 µM.

Take `Cc1[nH]n(C(=O)c2ccccc2O)c(=O)c1/C=C1\C(=O)C=Cc2ccccc21`: the EC50 was > 19.5 µM and the IC50 was determined as 0.398 µM.

For the molecule `NC(CC(=O)O)C(=O)O` (configuration not stated), the EC50 is > 38.9 µM and the half-maximal inhibitory concentration (IC50) was > 38.9 µM.

Consider `CN(C)Cc1cc(C(=O)/C=C/c2ccc(O)cc2)cc(CN(C)C)c1O`, for which the result was inactive.

Turning to `O=C(Nc1ccn(CCOC(=O)c2ccccc2)c(=O)n1)c1ccccc1`, the EC50 was > 186 µM and the IC50 is > 186 µM.

With `Cc1cn(C2CCC(CO)(CF)O2)c(=O)[nH]c1=O` (configuration not stated), the EC50 is > 200 µM and the 50% inhibitory concentration (IC50) was > 200 µM.

As for `Nc1nc(O)c(N=O)c(=O)[nH]1`, the EC50 is > 200 µM and the IC50 is > 200 µM.

Turning to `CC1=CP(=O)(c2ccccc2)C=C(C)C1=C(Cl)Cl` (configuration not stated), the outcome was inactive.

Turning to `Cc1cccc(Nc2ccccc2C(=O)O)c1C`, the EC50 was > 200 µM and the IC50 came to 129 µM.

`O=c1cn[nH]c2ccccc12`: the EC50 is > 741 µM and the half-maximal inhibitory concentration (IC50) was > 741 µM.

With `N#C/C(=C\c1ccc([N+](=O)[O-])cc1)c1ccccc1`, the EC50 was > 11 µM and the IC50 is > 11 µM.

For `CC(C)CCS(=O)(=O)O`, the EC50 is > 200 µM and the 50% inhibitory concentration (IC50) is > 200 µM.

For the molecule `O=[As](O)(O)c1ccc(Nc2nc(Cl)nc(Cl)n2)cc1`, the half-maximal effective concentration (EC50) was > 200 µM and the IC50 was > 200 µM.

For `COCc1cc(=O)oc2c3c(c4c(c12)OC(C)(C)C=C4)O[C@H](C)[C@@H](C)[C@H]3O`, the 50% effective concentration (EC50) is 174 µM and the 50% inhibitory concentration (IC50) was 182 µM.

Consider `COc1cc2cc(c1Cl)N(C)C(=O)CC(OC(=O)C(C)N(C)C(=O)C(C)C)C1(C)OC1C(C)C1CC(O)(NC(=O)O1)C(OC)/C=C/C=C(C)C2OC` (configuration not stated), for which the result was inactive.

As to `NCCSSSSCCN`, the EC50 was > 132 µM and the half-inhibitory concentration (IC50) is 34.7 µM.

`CN(C)C=Nc1ccc2[nH]c3ccccc3c2c1`: the EC50 was > 200 µM and the IC50 amounted to 107 µM.

As to `CC[C@H]1CN2CCc3cc(OC)c(OC)cc3[C@@H]2C[C@@H]1C[C@H]1NCCc2cc(O)c(OC)cc21`, the outcome was inactive.

Consider `CC1=NN(C(=O)CC(=O)NC(=O)/C=C\c2ccccc2)C(=O)C1N=Nc1ccc([N+](=O)[O-])cc1` (configuration not stated), for which the result was inactive.

Regarding `CC(C)(C)[Si](C)(C)OC[C@@H](NC(=O)OCc1ccccc1)C(=O)O`, the EC50 is > 200 µM and the half-maximal inhibitory concentration (IC50) is > 200 µM.

In the case of `O=c1[nH]nc(-c2ccccc2)n1/N=C\CC/C=N\n1c(-c2ccccc2)n[nH]c1=O`, the result was inactive.
